How the values were obtained:
U87 cells = test: MTT assay for cell viability; type: cell-based; conditions: Homo sapiens, U-87 MG, 24 h incubation
Protocol: U87 cells were maintained in DMEM supplemented with 10% fetal bovine serum and antibiotics (100 U/mL penicillin, 100 µg/mL streptomycin) at 37 °C in a humidified 5% CO2 atmosphere under sterile conditions. To ensure accurate experimental comparisons, all experiments included two control groups: a negative control of cells incubated in drug-free medium, and a solvent control with cells exposed to drug-free medium containing 0.5% DMSO, to evaluate any potential solvent toxicity. Cell viability was determined using the MTT assay after a 24 h incubation of U87 cells with various drug formulations. These included free atorvastatin, free curcumin, a solution combining atorvastatin and curcumin, At-Cu LNCs and FA-At-Cu LNCs. Stock solutions (2 mg/mL) for individual free drugs and their combination were prepared in phosphate-buffered saline (PBS) containing 1% sterile DMSO to ensure complete solubilization, from which serial dilutions (25–800 µg/mL) were then made. At-Cu LNCs and FA-At-Cu LNCs were sonicated for 5 min prior to preparing their serial dilutions (0.025–250 µg/mL). […] The resultant formazan crystals were dissolved in acidified isopropanol, and absorbance was measured at 560 nm using PHERAstar microplate reader (BMG Labtech, Ortenberg, Germany). Cell viability was expressed as a percentage of untreated control cells, and half-maximal inhibitory concentrations (IC50) were calculated. […]

[1] = cited from earlier work
[2] = In vivo pharmacokinetics and biodistribution of 131I-radiolabeled drugs in glioma-bearing mice; set-up: species or system BALB/c mice; conditions: [131I]-curcumin
Protocol: Labeling conditions were systematically optimized by varying pH, drug concentration, oxidant amount, and reaction time. […] Purification was achieved by RP-HPLC to remove free iodine and impurities. […] The radiochemical yield was determined by calculating the percentage of the total radioactivity attributed to the radio-iodinated compound, using the following equation [105, 106]: Radiochemical yield %=Activity of labeled compond/Total activity ×100
All animal procedures were conducted in accordance with arrive guidelines and were approved by the Research Ethics Committee at the Faculty of Pharmacy, The British university in Egypt, with approval number (EX-2508). Male BALB/c mice (6 weeks old, weighing 20–25 g) were utilized for the study. Prior to the start of experiments, animals were acclimatized for two weeks under controlled environmental conditions (25 ± 2 °C, 12 h light/dark cycle) in group-housed (3–5 mice/cage) polypropylene cages at the animal house of the Egyptian Atomic Energy Authority. […] For induction of brain tumor in mice, they were anesthetized through intraperitoneal injection of 0.1 mL of ketamine-xylazine solution containing ketamine HCl (25 mg/mL) and xylazine (2.5 mg/mL) as described in current protocols. To implant cells intracranially, a calibrated 26-gauge 701N Hamilton micro-syringe (Micromeasure B.V., The Hague, The Netherlands) was used to inject 5 µL of 2.5 × 10^6 cells of CT-2A glioma cell suspension intracranially through the post glenoid foramen as previously reported. The right auricle was slowly pushed forward during the procedure, exposing the site of insertion. The syringe was held at an appropriate angle, and the cell suspension was slowly injected over 30 s. On completion, the needle was removed gently while applying light finger pressure to prevent bleeding. Additional pressure was applied for an additional 30 s after the removal of the needle to achieve hemostasis.
One hundred and eighty BALB/c mice were randomly assigned into six experimental groups, each further divided into six subgroups (n = 5 per subgroup), corresponding to specific time points post-injection: 0.5, 1, 2, 4, 8, and 24 h. […] Formulations were prepared under aseptic conditions using sterile water for injection and a laminar flow hood.
At each time point, five mice per group were anesthetized using isoflurane, and blood samples were collected by cardiac puncture into pre-heparinized polypropylene tubes. Mice were then euthanized by CO2 inhalation, and organs including the brain, liver, and kidneys and others were excised, rinsed with physiological saline, gently blotted, and weighed. Tissue and plasma samples were analyzed for radioactivity using a well-type γ-scintillation counter (SR-7,Nuclear Enterprises Ltd., San Carlos, CA, USA) and data were expressed as the percentage of the injected dose per gram of tissue (%ID/g).
The mean radioactivity values (represented as % injected dose per gram of tissue, %ID/g) acquired at various time points were examined using PKSolver, a Microsoft Excel add-in, in order to evaluate the pharmacokinetic behavior and tissue distribution of the radiolabeled formulations. […] AUC values based on time-radioactivity data were calculated using the trapezoidal rule.
Two quantitative parameters were computed using the AUC values obtained from the biodistribution study in order to assess the targeting performance and tissue selectivity of the formulations. The following equation was used to calculate tumor targeting efficiency (%): Tumor targeting efficiency %= AUC0−24 glioma/AUC0−24 blood x100

[3] = Solubility study of folic acid in acetone; type: physicochemical; conditions: sedimentation at 40 mg
Protocol: The optimized formulation, composed of 39.60% w/w solutol, 10.50% w/w oils and 16.60 mg total drugs, was selected using Design Expert® software based on achieving the smallest PS, then prepared and experimentally evaluated to verify agreement between predicted and actual values. […] Accordingly, LNCs functionalized with 10, 20, and 30 mg FA were prepared and assessed for PS, PDI, and ZP. […] This oily phase was then mixed with the aqueous phase (composed of 100 mg sodium chloride in 2.5 mL distilled water). Then the mixture was subjected to three thermal cycling intervals (85 °C and 55 °C) under magnetic stirring. Finally ice-cold water was added till 10 g formulation was obtained. Stirring then continued for 10 min at room temperature.

[4] = i.v. 2 mg/kg, glioma-bearing mice

IC50 (U87 cells) [µg/mL]	AUC (0–24 h) Intestine, curcumin ([2]; i.v.) [%ID*h/g tissue]	AUC (0–24 h) Spleen, curcumin ([2]; i.v.) [%ID*h/g tissue]	AUC (0–24 h) kidneys, curcumin ([2]; i.v.) [%ID*h/g tissue]	AUC (0–24 h) liver, curcumin ([2]; i.v.) [%ID*h/g tissue]	AUC (0–24 h) Blood, curcumin [2, 4] [%ID*h/g tissue]	AUC (0–24 h) Brain, curcumin [2, 4] [%ID*h/g tissue]	AUC (0–24 h) Glioma, curcumin [2, 4] [%ID*h/g tissue]	Complete solubility in acetone [3]	Structure (SMILES)	Renal excretion of atorvastatin and its active metabolites [1]
680 ± 17.2									CC(C)c1c(C(=O)Nc2ccccc2)c(-c2ccccc2)c(-c2ccc(F)cc2)n1CC[C@@H](O)C[C@@H](O)CC(=O)O [atorvastatin, Atorvastatin calcium]	less than 2 % of the dose
724 ± 78.3	526.50 ± 111.63	7.07 ± 1.70	57.87 ± 12.47	711.50 ± 114.83	72.27 ± 15.44	1.47 ± 0.44	3.72 ± 1.34		COc1cc(/C=C/C(=O)CC(=O)/C=C/c2ccc(O)c(OC)c2)ccc1O [curcumin, Curcumin]	
								up to 30 mg	Nc1nc2ncc(CNc3ccc(C(=O)N[C@@H](CCC(=O)O)C(=O)O)cc3)nc2c(=O)[nH]1 [FA, Folic acid]	

Source: publication PMC12655235 (Pharmaceuticals, 2025)
